Consider 8 molecules from patent publication US6066672A, “Amino compounds and angiotensin IV receptor agonists” (Taisho Pharmaceutical Co., Ltd., priority 1996, dated 2000).

SMILES strings stand for the structures. Counter-ions that a name gives are not always drawn.

For this test, the target named is T1, angiotensin IV receptor (Cavia porcellus, UniProt H0VNM7).
T1 construct: The Hartley guinea pig hippocampus was homogenized in a 50 mM Tris hydrochloride buffer solution; from tissue; host or cells: Hartley guinea pig hippocampus, crude membrane (48,000 x g precipitate)
T1 sequence (H0VNM7 1-1025): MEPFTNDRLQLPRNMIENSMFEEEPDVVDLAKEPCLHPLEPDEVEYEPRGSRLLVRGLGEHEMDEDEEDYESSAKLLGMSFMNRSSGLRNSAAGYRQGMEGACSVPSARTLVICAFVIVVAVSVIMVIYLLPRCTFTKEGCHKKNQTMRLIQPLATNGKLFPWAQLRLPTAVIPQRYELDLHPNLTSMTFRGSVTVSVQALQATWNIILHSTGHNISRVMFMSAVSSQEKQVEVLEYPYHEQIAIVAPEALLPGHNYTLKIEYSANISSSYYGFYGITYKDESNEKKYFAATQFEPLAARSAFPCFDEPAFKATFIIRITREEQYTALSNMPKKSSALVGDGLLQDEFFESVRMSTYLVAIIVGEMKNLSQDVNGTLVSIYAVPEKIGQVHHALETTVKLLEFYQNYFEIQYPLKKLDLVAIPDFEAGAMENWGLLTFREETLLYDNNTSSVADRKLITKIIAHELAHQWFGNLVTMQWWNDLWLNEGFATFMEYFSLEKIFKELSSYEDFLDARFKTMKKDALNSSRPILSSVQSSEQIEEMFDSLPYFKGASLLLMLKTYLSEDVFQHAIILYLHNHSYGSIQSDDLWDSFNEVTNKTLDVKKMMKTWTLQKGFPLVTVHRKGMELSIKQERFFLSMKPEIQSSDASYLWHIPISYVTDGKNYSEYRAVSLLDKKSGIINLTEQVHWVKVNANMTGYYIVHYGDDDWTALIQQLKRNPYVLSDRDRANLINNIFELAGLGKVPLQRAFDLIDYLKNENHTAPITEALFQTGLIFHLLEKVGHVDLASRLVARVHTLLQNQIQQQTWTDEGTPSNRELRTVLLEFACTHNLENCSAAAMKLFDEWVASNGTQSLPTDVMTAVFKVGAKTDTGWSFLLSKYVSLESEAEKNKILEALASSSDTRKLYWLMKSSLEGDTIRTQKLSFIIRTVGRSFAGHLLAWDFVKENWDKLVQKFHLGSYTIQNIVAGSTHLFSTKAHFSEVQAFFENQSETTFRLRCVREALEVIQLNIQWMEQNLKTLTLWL
The test can be described thus: binding capability to angiotensin IV receptor, inhibition of 125I-angiotensin IV binding to guinea pig hippocampus membrane. Particulars: 0.2 nM 125I-angiotensin IV, Hartley guinea pig hippocampus crude membrane, 37° C., 90 minutes, pH 7.4. The procedure:
The binding capability to angiotensin IV receptor was measured by using Hartley guinea pig hippocampus referring to the method described by Miller-Wing et al., J. Pharmacol. Exp. Ther., vol. 266, pp.1718 (1993). The Hartley guinea pig hippocampus was homogenized in a 50 mM Tris hydrochloride buffer solution (pH 7.4) containing 1 mM ethylenediamine-N,N,N',N'-tetraacetic acid (EDTA) and 100 μM phenylmethanesulfonyl fluoride (PMSF). After centrifugation at 900× g, the resulting supernatant was further centrifuged at 48,000× g. The precipitate was washed once with the same buffer solution and suspended in 50 mM Tris hydrochloride buffer solution (pH 7.4) containing 150 mM sodium chloride, 1 mM EDTA, 100 μM PMSF and 0.1% bovine serum albumin (BSA) to give a protein concentration of […] as a crude membrane specimen. […] The radioactivity on the filter paper was measured by using a gamma-counter. The non-specific bond was measured in the presence of 1 μM angiotensin IV, and the specific bond was calculated by subtracting the non-specific bond from the total bond.
Molecule `CCCC[C@H](N)CN[C@@H](Cc1ccc(O)cc1)C(=O)N[C@H](CCc1ccc2ccccc2n1)CC(C)C` [Example 24, N'-[(S)-2-aminohexyl]-N-[(R)-3-methyl-1-[2-(2-quinolyl)ethyl]butyl]-L-tyrosinamide dihydrochloride] yielded an IC50 of 3.77 nM.
Under `C=C[C@H](CC(C)C)NC(=O)[C@H](Cc1ccc(O)cc1)NC[C@@H](N)CCCC` [Example 25, N'-[(S)-2-aminohexyl]-N-[(S)-1-(2-methylpropyl)-2-propenyl]-L-tyrosinamidedihydrochloride] stands 89 nM; under `CCCC[C@H](N)CN[C@@H](Cc1ccc(O)cc1)C(=O)N[C@H](CC)CC(C)C` [Example 26, N'-[(S)-2-aminohexyl]-N-[(R)-1-ethyl-3-methylbutyl]-L-tyrosinamide dihydrochloride], 38.5 nM.
Next, `CCCC[C@H](N)C(=O)N[C@H](CN[C@H](/C=C/c1ccccc1)CC(C)C)Cc1ccc(O)cc1` [Example 27, N-[(S)-1-[(4-hydroxyphenyl)methyl]-2-[(S)-(E)-[1-(2-methylpropyl)-3-phenyl-2-propenyl]amino]ethyl]-L-norleucinamide dihydrochloride]: 328 nM; `CCCC[C@H](N)C(=O)N[C@H](CN[C@H](CCc1ccccc1)CC(C)C)Cc1ccc(O)cc1` [Example 28, N-[1-[(S)-[(4-hydroxyphenyl)methyl]]-2-[[(R)-3-methyl-1-(2-phenylethyl)butyl]amino]ethyl]-L-norleucinamide dihydrochloride]: 299 nM; `CCCC[C@H](N)CN[C@H](CN[C@H](/C=C/c1ccccc1)CC(C)C)Cc1ccc(O)cc1` [Example 29, (S)-(E)-N-[(S)-2-[[(S)-2-aminohexyl]amino]-3-(4-hydroxyphenyl)propyl]-5-methyl-1-phenyl-1-hexen-3-amine trihydrochloride]: 24.2 nM.
Regarding `CCCC[C@H](N)CN[C@H](CN[C@H](CCc1ccccc1)CC(C)C)Cc1ccc(O)cc1` [Example 30, (R)-N-[(S)-2-[[(S)-2-aminohexyl]amino]-3-(4-hydroxyphenyl)propyl]-5-methyl-1-phenylhexan-3-amine trihydrochloride], the IC50 came out at 171 nM.
Under `CCCC[C@H](N)CN[C@H](CN[C@H](C(=O)OC)[C@@H](C)CC)Cc1ccc(O)cc1` [Example 31, N-[(S)-2-[[(S)-2-aminohexyl]amino]-3-(4-hydroxyphenyl)propyl]-L-isoleucinemethyl ester trihydrochloride] stands 32 nM.

In general, IC50 refers to the point on the concentration scale where inhibition reaches its midpoint.
